What is called pIC50 is the IC50 on a negative log10 scale, so that one unit is a factor of ten. A low value points to a large IC50. For orientation: IC90 means the concentration at which the effect reaches the 90% level. By IC50 is commonly meant the point on the concentration scale where inhibition reaches its midpoint.

The values below come from US8642765B2, “Azaindole-indole coupled derivatives, preparation methods and uses thereof” (priority 2007, dated 2014).

In one series the test system is DU145 tumor cells. Nature of the series: MTT growth inhibition of DU145 cells, 72 h. Format: cell-based, human. The settings on record: for pIC50 / IC90: DU145, 72 h, MTT; for growth inhibitory effects on tumor cells (in words): discussion of the MTT assay, DU145. As to the method:
DU145 cells were inoculated in RPM11640 medium containing 10% calf serum, incubated at 37° C., 5% CO2 in CO2 incubator, and passaged every 2-3 days. In this experiment, cells were grown in logarithmic growth phase.
In the experiment, the cells at logarithmic growth phase were formulated into suspension, and the viability by trypan blue staining was more than 98%. The suspension was divided into several groups: 1 as blank control group (cell suspension); and 2 as experimental groups (cell suspension plus drugs).
(§1) The drugs were formulated into a stock solution in DMSO, and the concentration of the stock solution was 20 mmol (used within 4 hours). In the experiment, the work solution of the drugs was diluted with RPM11640 medium containing 10% calf serum under aseptic condition, to a final concentration of 80 μM. The drug concentrations were increased by 2 times (1.25-20 μM).
(§2) The DU145 cell in logarithmic growth phase were selected, centrifuged, counted, and formulated into a cell suspension (2.5×10^4/ml) with RPM11640 medium containing 10% calf serum. The cell suspension were inoculated into 96-well plates at a density of 5000 cells/200 μl per well, incubated for 24 hours at 37° C., 5% CO2. According to the above concentration of the drug, the cells were inoculated to 6 groups (including one control group), with 8 wells per group. After incubating for 72 hours, the viability of cells was measured by MTT assay. The absorbance value (A) was measured with detection wavelength at 540 nm, reference wavelength at 630 nm. The inhibitory rate (I) was calculated by the following equation, where T was the absorbance value of the experimental groups, and C was the absorbance value of the blank control group: I=(1−T/C)×100%
(§3) The regression equation was calculated by the concentration-inhibitory rate curve, to obtain 50% and 90% inhibition concentration (IC50 and IC90, μM).
(In general: Formazan colour is commonly taken as a measure of viable cells.)

The nature of series [1]: Dissolution of solid dispersion preparations. As to conditions: 45 minute, 100 ml of 1% sodium dodecyl sulfate solution, 37±0.5° C., 100 r/min. Type of series: physicochemical. On the procedure:
Instruments: RCZ-5A capacity medicament dissolve and infiltrate apparatus is made by Tianjin University Precision Instruments Factory. UV1900 UV-Vis spectrophotometer is made by Shanghai Yayan Electronic Science And Technology Co., Ltd.
Dissolution determination methods: According to the third method of XC dissolution assay stated in the appendix of Chinese Pharmacopeia (Edition 2005), the rotation speed was 100 r/min, the temperature was 37±0.5° C., and the dissolution medium was 100 ml of 1% sodium dodecyl sulfate solution degassed ultrasonically. A specimen was withdrawn at 45 minute and immediately filtered through a 0.8 μm water membrane. The filtrate was quantitatively diluted. The absorbance was measured by UV1900, and the dissolution percentage was calculated.

The nature of series [2]: Safety profile (stated in the discussion, no method described). The settings on record: discussion of Example 2; no data shown.
For series [3], the system named is human leukemia cell line CEM. Nature of the series: MTT growth inhibition of CEM cells. As to conditions: read-out: IC50 (μM) Tumor cells CEM. Type of series: cell-based. As to the method: as §1, §2, §3
(§4) 1. Tumor Cells: human hepatoma cell lines 7701 QGY and HepG-2, human lung adenocarcinoma cell line A549, human chronic myelocytic leukemia cell line K562, human leukemia cell line CEM and mouse melanoma cell line K111.
(§5) 2. Using the methods described in example 2, the biological activity of a portion of newly synthesized 5- or 7-azaindirubin derivatives and 5- or 7-azaisoindigo derivatives (20 compounds) for inhibiting various tumor cells growth were determined.

In series [4] the test system is human hepatoma cell line 7701 QGY. Nature of the series: MTT growth inhibition of 7701 QGY cells. Format: cell-based. As to conditions: read-out: IC50 (μM) Tumor cells 7701 QGY. On the procedure: as §1, §2, §3, §4, §5
Series [5] relates to human chronic myelocytic leukemia cell line K562. Nature of the series: MTT growth inhibition of K562 cells. Type of series: cell-based. As to conditions: read-out: IC50 (μM) Tumor cells K562. On the procedure: as §1, §2, §3, §4, §5
The test system of series [6] is human lung adenocarcinoma cell line A549. Description: MTT growth inhibition of A549 cells. Type of series: cell-based. The settings on record: read-out: IC50 (μM) Tumor cells A549. As to the method:
as §1, §2, §3, §4, §5

In series [7] the test system is human hepatoma cell line HepG-2. Nature of the series: MTT growth inhibition of HepG-2 cells. The settings on record: HepG-2, MTT; read-out: IC50 (μM) Tumor cells HepG-2. Format: cell-based. On the procedure: as §1, §2, §3, §4, §5
The test system of series [8] is mouse melanoma cell line K111. Nature of the series: MTT growth inhibition of K111 cells. Type of series: cell-based. The settings on record: Klll, read-out: IC50 (μM) Tumor cells Klll. On the procedure:
as §1, §2, §3, §4, §5

The next series has as its system phospho-CDK2^Thr160. Nature of the series: Western blot of phospho-CDK2 in DU145 cells. Format: cell-based, human. The settings on record: DU145, treated for 24 hours, FIG. 3. From the text:
(§6) Reagents: The tested compounds were the same as example 2. Unless otherwise indicated, other chemical reagents were purchased from Sigma Chemical Company (USA). Polyacrylamide gel used in protein electrophoresis, SDS, electrophoresis buffer, transfer buffer protein, nitrocellulose membrane were purchased from American Bio-Rad Life Science Company. Western blotting detection kits and films were purchased from American GE Company. Phospho-CDK2^Thr160 antibody, endogenous cyclin-dependent inhibitor p27 antibody, CyclinD1 and β-Actin antibody were purchased from American Cell Signaling Inc., DAKO and Santa Cruz Biochemical Technology Company.
(§7) Tumor cells and methods for cell culture were the same as example 2.
(§8) Phospho-Cdc2, p27, and Cyclin D1 were Detected by Western Blot: The human prostate cancer cell lines DU145 at logarithmic growth phase were treated with compounds No. 124 and No. 126 (concentration is shown in FIG. 3) for 24 hours. The cells were harvested and washed. Total cellular proteins were extracted and quantified as described previously^[14]. 50 μg of protein was separated on a SDS-PAGE, electro-transferred to nitrocellulose filters. Western blot were performed using specific antibodies against Phospho-CDK2, endogenous cyclin-dependent inhibitor p27 and CyclinD1, with β-Actin antibody as an internal standard. The result was recorded by ECL films.
On the technique in general: A western blot detects proteins with antibodies after separation by electrophoresis.

The next series has as its system Cyclin D1. Description: Western blot of Cyclin D1 in DU145 cells. The settings on record: DU145, treated for 24 hours, FIG. 3. Format: cell-based, human.
From the text: as §6, §7, §8

In series [9] the test system is endogenous cyclin-dependent inhibitor p27. Nature of the series: Western blot of p27 in DU145 cells. Type of series: cell-based, human. As to conditions: DU145, treated for 24 hours, FIG. 3.
From the text: as §6, §7, §8

The structures appear in SMILES notation. pIC50: −log10 of the molar value.

`O=C1C(=C2C(=O)N(Cc3ccccc3)c3ccncc32)Nc2ccc(Br)cc21` [Compound 18]: in the series with DU145 tumor cells (Table 5), the pIC50 was 5.18 and the concentration for an effect of 90% (IC90) was 23.5 µM. Also, the “Dissolution percentages (%)” value in series [1] was found to be 4%.

As to `CC(C)N1C(=O)C(=C2Nc3ccc(Br)cc3C2=NO)c2cccnc21` [Compound 121], the negative logarithm of the IC50 (pIC50) in the series with DU145 tumor cells (Table 6) was 5.51. Further, the IC90 with DU145 tumor cells (Table 6) was 29 µM. In the series with DU145 tumor cells, the “growth inhibitory effects on tumor cells (in words)” value is recorded as “relatively significant growth inhibitory effects”. Also, in series [2], the safety profile entry is listed as “good safety profile”. The half-maximal inhibitory concentration (IC50) in [3] is 11.3 µM; in series [4], 14.9 µM; in [5], 11.5 µM; in [6], 18.1 µM; in series [7], 16 µM; in series [8], 6 µM.

For the molecule `CCCCN1C(=O)C(=C2Nc3ccc(Cl)cc3C2=NO)c2cccnc21` [Compound 124], in the series with DU145 tumor cells (Table 6), the pIC50 was 5.74 and it took 12 µM to reach the 90% level (IC90). The “growth inhibitory effects on tumor cells (in words)” value in the series on DU145 tumor cells is on record as “relatively significant growth inhibitory effects”. The safety profile entry in series [2] was “good safety profile”. In addition, the “level of CDK2 activity (phosphorylation)” value in the series on phospho-CDK2^Thr160 is “decreased in a dose-dependent manner”. The “protein expression of cyclin D1” value in the series on Cyclin D1 is “significantly decreased”. The “expression of endogenous cyclin-dependent inhibitor p27” value in [9] is recorded as “significantly increased”.

`O=C1C(=C2Nc3ccc(Cl)cc3C2=NO)c2cccnc2N1Cc1ccccc1` [Compound 126] showed a negative-log IC50 (pIC50) in the series with DU145 tumor cells (Table 6) of 5.15. In the series with DU145 tumor cells (Table 6), this molecule registered an IC90 of 19 µM. Further, the 50% inhibitory concentration (IC50) in [3] was determined as 8.1 µM; in [4], 11.2 µM; in series [5], 5.1 µM; in [6], 9.6 µM; in [7] it was 16.3 µM; in [8] it was 14.2 µM. The “level of CDK2 activity (phosphorylation)” value in the series on phospho-CDK2^Thr160 was “decreased in a dose-dependent manner”. For the same molecule, the “protein expression of cyclin D1” value with Cyclin D1 was “significantly decreased”. Besides, the “expression of endogenous cyclin-dependent inhibitor p27” value in series [9] was “significantly increased”.
